For experiment [1], the system named is pylorus ligated albino rats. As to the kind of experiment: Anti-ulcerogenic effect in pylorus ligated rats (ulcer index, gastric juice). Type of experiment: in vivo. An excerpt:
Mixture of DBPs (1:1, 1 and 2, Scheme-II), on'the other hand, increased the contents of individual and the total carbohydrates and also the total carbohydrate/protein ratio in the gastric juice. The ratio of the total carbohydrate/protein was taken as the index of the mucin activity.
Another essential criterion of determining the status of mucosal resistance/barrier is the state of mucus secretion. DBPs increase not only the mucosal cellular mucus, but also secrete more dissolved mucus in the gastric juice as evidenced by their effects on gastric juice carbohydrates and on the increased carbohydrate/protein ratio.

Experiment [2] has as its system active learning in rats. As to the kind of experiment: Active learning (learning acquisition), number of trials to reach criterion. Type of experiment: in vivo, rat. Particulars: p.o. once daily 45 min before trial for 4 days, mean ± SEM. The text has this:
In the learning acquisition paradigm, in the control group, the number of shocked and unshocked trials required to reach the criterion of 10 correct conditional responses, were 14.33 and 43.70, respectively.

Experiment [3] concerns CS-induced gastric ulceration in albino rats. As to the kind of experiment: Chronic stress (foot-shock) induced gastric ulceration. Type of experiment: in vivo. Here is the method: A comparative study of DBPs (1, 2, Scheme-II; 1:1 mixture), EPA and DHA was carried out to determine their relative adaptogenic potency against chronic stress in albino rats. The study is also relevant in view of the projected links of EPA and DHA to mental development in children which is severely retarded by chronic stress.
Rats were randomly assigned to control or stress groups. Those assigned to the stress groups were subjected to 1 hour foot-shock, through a grid floor, every day for 14 days. The duration of each shock (2 mA) and the intervals between the shocks were randomly programmed between 3-5 seconds and 10-110 seconds, respectively, to make the stress unpredictable.
EPA (Aldrich), DHA (Sigma) and DBPs were separately suspended/dissolved in 0.3% carboxymethylcellulose (CMC) in distilled water and administered orally (p.o.) for 14 days, starting on day 1, 60 min. prior to electro-shock. Control animals received only the vehicle in either unstressed or the stressed rats for the same period in a volume of 2 ml/Kg, p.o. Estimations were conducted on day 14, one hour after the last stress procedure and two hours after the last test compound or vehicle was administered.
The three test compounds had, albeit in different extent, dose-related anti-ulcerogenic effect. The efficacy was in the order: DBPs>DHA>EPA (Table 2).

For experiment [4], the system named is CS-induced alteration of adrenal gland ascorbic acid and corticosterone concentrations and plasma corticosterone level. Put plainly: Chronic stress induced alteration of adrenal ascorbic acid, adrenal corticosterone and plasma corticosterone. The class given is in vivo, albino rats. The method, then: The study is also relevant in view of the projected links of EPA and DHA to mental development in children which is severely retarded by chronic stress. Rats were randomly assigned to control or stress groups. Those assigned to the stress groups were subjected to 1 hour foot-shock, through a grid floor, every day for 14 days. […] Control animals received only the vehicle in either unstressed or the stressed rats for the same period in a volume of 2 ml/Kg, p.o. […] CS caused marked depletion of adrenal gland ascorbic acid and corticosterone concentrations with concomitant increase in plasma corticosterone levels. […] They had no per se effect on the indices of stress investigated (Table 3).

For experiment [5], the system named is open-field test in rats. Put plainly: Open-field test (anxiogenic test model). The class given is in vivo, rat. The arrangement: Immobility: unit not given here. The method, then:
This was determined according to a previously described method (Bhattacharya et al. 1998).
MDMA (5 and 10 mg/Kg, i.p.) produced a dose-related decrease in the number of squares crossed and rears, with concomitant immobility and increased defecation; these effects are qualitatively similar to those induced by yohimbine (2 mg/Kg, i.p. in 0.9% saline as the vehicle). DBPs (1 and 2, 1:1 mixture 10 mg/Kg, p.o. day-1, for 7 days) were administered prior to MDMA or yohimbine administration, on the 7th day, 1 hour after the last DBPs administration (p.o.). Similar anti-anxiogenic effects were observed on pretreatment of MDMA, followed by DBPs.

Setting [6] is: 5 mg/Kg p.o. for 14 days + chronic stress.
Setting [7] is: 10 mg/Kg p.o. for 14 days + chronic stress.
[8] abbreviates: 5 mg/Kg p.o., unstressed rats (per se effect).
Where [9] appears, read: 10 mg/Kg p.o., unstressed rats (per se effect).
Setting [10] is: 10 mg/Kg p.o. for 7 days, prior to MDMA or yohimbine administration.

We go through 4 molecules from patent US20050282781A1, “Compositions of stable bioactive metabolites of docosahexaenoic (DHA) and eicosapentaenoic (EPA) acids” (priority 2004, published 2005).

Marks after values point to notes of the source that are not given here.

For `CC(=O)Oc1ccccc1C(=O)O` [ASP, aspirin], the “protein content in the gastric juice” value in experiment [1] (compared to the vehicle control) was “significant increase”. Moreover, in experiment [1] (pylorus ligated rats), the “contents of DNA and protein in the gastric juice” value is “appreciable increase”; the “total carbohydrate/protein ratio in the gastric juice (index of mucin activity)” value is recorded as “considerable decrease”.
As to `CC/C=C\C/C=C\C/C=C\C/C=C\C/C=C\C/C=C\CCC(=O)O` [DHA, docosahexaenoic acid], in experiment [2] (dose 2.5 mg/ml), the “Number of trials to reach criterion, Shocked trials” value amounted to 12.55 ± 2.03 and the “Number of trials to reach criterion, Unshocked trials” value amounted to 39.33 ± 2.04. The “Number of trials to reach criterion, Shocked trials” value in experiment [2] (dose 5.0 mg/ml) was found to be 12.78 ± 1.83. For the same molecule, in experiment [3] (setting [6]), the No. of ulcers is reported as 15.8 ± 4.0, the Severity of ulcers turned out to be 28.1 ± 5.9 and the “Ulcer incidence (%)” value was 70%. In experiment [3] (setting [7]), the No. of ulcers worked out at 14.7 ± 3.8, the Severity of ulcers came out at 25.0 ± 5.2 and the “Ulcer incidence (%)” value was 60%. For the same molecule, in experiment [4] (setting [6]), the Adrenal ascorbic acid came out at 140.7 ± 20.5 μg/100 mg, the Adrenal corticosterone is on record as 2.5 ± 1.0 μg/100 mg and the Plasma corticosterone is given as 22.5 ± 3.5^b μg/dL. Also, in experiment [4] (setting [8]), the Adrenal ascorbic acid was 309.4 ± 30.4 μg/100 mg, the Adrenal corticosterone is reported as 4.8 ± 1.2 μg/100 mg and the Plasma corticosterone is 15.0 ± 0.9 µg/dL. In experiment [4] (setting [7]), the Adrenal ascorbic acid was 148.0 ± 16.7^b μg/100 mg, the Adrenal corticosterone is 2.8 ± 1.0^b μg/100 mg and the Plasma corticosterone is reported as 17.9 ± 0.9^b μg/dL. Besides, in experiment [4] (setting [9]), the Adrenal ascorbic acid is 308.9 ± 27.4 μg/100 mg, the Adrenal corticosterone turned out to be 5.5 ± 1.0 μg/100 mg and the Plasma corticosterone came out at 14.7 ± 1.0 µg/dL. Also, in experiment [5] (setting [10]), the Faecal pellets is given as 5.7 ± 4.1, the Immobility is 59.9 ± 7.2, the Rears worked out at 14.0 ± 5.5 and the Squares crossed is 122.1 ± 5.5.
In experiment [5] (5 mg/Kg, i.p.), `CNC(C)Cc1ccc2c(c1)OCO2` (stereo not shown) [MDMA, Methylenedioxymethylamphetamine] yielded a Faecal pellets of 6.7 ± 0.5, an Immobility of 69.3 ± 6.1, a Rears of 14.3 ± 4.2 and a Squares crossed of 111.2 ± 8.0. In experiment [5] (10 mg/Kg, i.p.), the Faecal pellets worked out at 8.0 ± 2.2, the Immobility was 80.1 ± 7.0, the Rears is given as 11.2 ± 3.9 and the Squares crossed came to 74.7 ± 5.5.
As to `COC(=O)[C@@H]1[C@H]2C[C@H]3c4[nH]c5ccccc5c4CCN3C[C@@H]2CC[C@@H]1O` [Yohimbine, yohimbine], in experiment [5] (2 mg/Kg, i.p. in 0.9% saline), the Faecal pellets was found to be 7.5 ± 1.2, the Immobility is reported as 70.2 ± 4.9, the Rears came to 12.8 ± 4.4 and the Squares crossed is recorded as 90.8 ± 7.4.
